# Compound: COC1=C(C=C(C=C1)C2=CC3=NC=CN3C(=N2)NC4=C(C=CC=N4)C(=O)N)OC [BAY61-3606] + COc1cccc2cc(-c3nc([C@H]4CC[C@H](C(=O)O)CC4)n4ncnc(N)c34)[nH]c12 [OSI-027] (partner 0.5 µM)
# Assay: relative viability (nuclei count vs DMSO), 5 days (fraction); higher = more cells survive
# Conditions: first compound 2 µM
# How it was run: (§1)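 One day after seeding in 1536-well plates, lung cancer cell lines were dosed by pin tool. Dosing was either single-drug or a fixed anchor-drug dose plus five library-drug doses (not always all listed) in √10 steps. After 5 days, nuclei were stained in one fix-and-stain step and counted on 4× images, and relative viability is the nuclei count of treated wells over that of vehicle wells, given as the median of duplicate plates.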
row,Cell Line,relative viability
1,COR-L 105,0.468
2,LC-2-ad,0.654
3,LU99A,0.306
4,ChaGo-K-1,0.639
5,NCI-H358,0.199
6,NCI-H322M,0.47
7,HCC-78,0.427
8,NCI-H522,0.738
9,LXF-289,0.825
10,BEN,0.276
11,NCI-H1563,0.676

# Compound: COC1=C(C=C(C=C1)C2=CC3=NC=CN3C(=N2)NC4=C(C=CC=N4)C(=O)N)OC [BAY61-3606] + CC(=O)c1c(C)c2cnc(Nc3ccc(N4CCNCC4)cn3)nc2n(C2CCCC2)c1=O [Palbociclib] (partner 0.5 µM)
# Assay: as above
# Conditions: first compound 0.02 µM
# How it was run: as §1
row,Cell Line,relative viability
1,NCI-H2342,0.469
2,RERF-LC-KJ,1.03
3,NCI-H1651,0.558
4,NCI-H1734,0.361
5,NCI-H2009,0.22
6,SK-LU-1,0.356
7,SW 1573,0.455
8,LCLC-97TM1,0.241
9,NCI-H661,0.408
10,NCI-H2228,0.989
11,EMC-BAC-2,0.516
12,NCI-H2087,0.234
13,HCC-44,0.959
14,NCI-H727,0.737
15,LK-2,0.641
16,NCI-H2126,0.356
17,NCI-H1648,0.251
18,NCI-H1793,0.27
19,H3255,0.3
20,COR-L23,0.338
21,COR-L 105,0.443
22,LC-2-ad,0.479
23,LU99A,0.448
24,ChaGo-K-1,0.934
25,NCI-H358,0.123
26,NCI-H322M,0.522
27,HCC-78,0.438
28,NCI-H522,0.938
29,LXF-289,0.533
30,BEN,0.456

# Same assay, conditions: first compound 0.06325 µM
row,Cell Line,relative viability
1,NCI-H2342,0.48
2,RERF-LC-KJ,1.2
3,NCI-H1651,0.511
4,NCI-H1734,0.327
5,NCI-H2009,0.211
6,SK-LU-1,0.384
7,SW 1573,0.423
8,LCLC-97TM1,0.222
9,NCI-H661,0.378
10,NCI-H2228,0.916
11,EMC-BAC-2,0.515
12,NCI-H2087,0.264
13,HCC-44,0.941
14,NCI-H727,0.588
15,LK-2,0.74
16,NCI-H2126,0.353
17,NCI-H1648,0.259
18,NCI-H1793,0.283
19,H3255,0.307
20,COR-L23,0.252
21,COR-L 105,0.437
22,LC-2-ad,0.516
23,LU99A,0.395
24,ChaGo-K-1,0.846
25,NCI-H358,0.143
26,NCI-H322M,0.47
27,HCC-78,0.431
28,NCI-H522,0.823
29,LXF-289,0.587
30,BEN,0.438

# Same assay, conditions: first compound 0.2 µM
row,Cell Line,relative viability
1,NCI-H2342,0.517
2,RERF-LC-KJ,1.03
3,NCI-H1651,0.513
4,NCI-H1734,0.367
5,NCI-H2009,0.214
6,SK-LU-1,0.35
7,SW 1573,0.35
8,LCLC-97TM1,0.281
9,NCI-H661,0.413
10,NCI-H2228,0.731
11,EMC-BAC-2,0.513
12,NCI-H2087,0.221
13,HCC-44,0.924
14,NCI-H727,0.637
15,LK-2,0.822
16,NCI-H2126,0.369
17,NCI-H1648,0.265
18,NCI-H1793,0.337
19,H3255,0.301
20,COR-L23,0.377
21,COR-L 105,0.404
22,LC-2-ad,0.454
23,LU99A,0.451
24,ChaGo-K-1,0.89
25,NCI-H358,0.136
26,NCI-H322M,0.511
27,HCC-78,0.486
28,NCI-H522,1.23
29,LXF-289,0.62
30,BEN,0.477

# Same assay, conditions: first compound 0.6325 µM
row,Cell Line,relative viability
1,NCI-H2342,0.602
2,RERF-LC-KJ,1.18
3,NCI-H1651,0.573
4,NCI-H1734,0.351
5,NCI-H2009,0.231
6,SK-LU-1,0.357
7,SW 1573,0.344
8,LCLC-97TM1,0.218
9,NCI-H661,0.42
10,NCI-H2228,0.766
11,EMC-BAC-2,0.587
12,NCI-H2087,0.28
13,HCC-44,0.968
14,NCI-H727,0.635
15,LK-2,0.697
16,NCI-H2126,0.352
17,NCI-H1793,0.335
18,H3255,0.334
19,COR-L23,0.347
20,COR-L 105,0.422
21,LC-2-ad,0.532
22,LU99A,0.417
23,ChaGo-K-1,0.916
24,NCI-H358,0.125
25,NCI-H322M,0.49
26,HCC-78,0.44
27,NCI-H522,0.982
28,LXF-289,0.677
29,BEN,0.442

# Same assay, conditions: first compound 2 µM
row,Cell Line,relative viability
1,NCI-H2342,0.63
2,RERF-LC-KJ,0.924
3,NCI-H1651,0.523
4,NCI-H1734,0.214
5,NCI-H2009,0.155
6,SK-LU-1,0.289
7,SW 1573,0.248
8,LCLC-97TM1,0.301
9,NCI-H661,0.477
10,NCI-H2228,0.553
11,EMC-BAC-2,0.547
12,NCI-H2087,0.249
13,HCC-44,1.13
14,NCI-H727,0.631
15,LK-2,0.567
16,NCI-H2126,0.31
17,NCI-H1648,0.276
18,NCI-H1793,0.474
19,H3255,0.307
20,COR-L23,0.215
21,COR-L 105,0.411
22,LC-2-ad,0.453
23,LU99A,0.271
24,ChaGo-K-1,0.865
25,NCI-H358,0.101
26,NCI-H322M,0.447
27,HCC-78,0.522
28,NCI-H522,0.704
29,LXF-289,0.665
30,BEN,0.509
